Data from patent publication US8614339B2, “Dimeric derivatives of artemisinin and application in anti-cancer therapy” (Pierre Fabre Medicament, priority 2008, dated 2013).

Tests used:
A549 cell line (lung) = assay: Cytotoxic activity: inhibition of cell proliferation, ATPLite luminescence of residual ATP after 72 hours; format: cell-based; details: A549 human lung tumour cell line, 72 hours of incubation, read-out: IC50 (expressed in nM) A549
Procedure: (§1) The cytotoxic activity of the compounds of the invention was evaluated by measuring inhibition of cell proliferation of human tumour cell lines, such as the A549 cell line (lung) and the Namalwa cell line (lymphoma). This activity is expressed by IC50, the concentration of the product tested able to inhibit cell proliferation by 50%. The method employed is measurement by luminescence of residual ATP after 72 hours of incubation using the ATPLite® kit sold by Perkin Elmer, as described in the following publication: “Measurement of cytotoxicity by ATP-based luminescence assay in primary cell cultures and cell lines.” I. A. Cree, P. E. Andreotti, Toxicology in Vitro, 11, 553-6, (1997).
(§2) As an example, the cytotoxic properties of a few of the compounds of the invention evaluated on A549 and Namalwa cell lines are presented in the following table: […]

[1] = test system: Namalwa cell line (lymphoma); assay: as above; format: cell-based; details: Namalwa human lymphoma cell line, 72 hours of incubation, read-out: IC50 (expressed in nM) Namalwa
Procedure: as §1, §2

| SMILES | IC50 (A549 cell line (lung)) | IC50 [1] |
| --- | --- | --- |
| C[C@@H]1CC[C@H]2C(Cn3nncc3CO[C@@]3(C(F)(F)F)O[C@@H]4OC5(C)CCC6[C@H](C)CC[C@@H]([C@H]3C)[C@]64OO5)=C(C(F)(F)F)O[C@@H]3OC4(C)CCC1[C@]32OO4 (stereo partly drawn) [Compound 7] | 45 nM | 30 nM |
| C[C@@H]1CC[C@H]2C(COCCO[C@@]3(C(F)(F)F)O[C@@H]4OC5(C)CCC6[C@H](C)CC[C@@H]([C@H]3C)[C@]64OO5)=C(C(F)(F)F)O[C@@H]3OC4(C)CCC1[C@]32OO4 (stereo partly drawn) [Compound 2] | 25 nM | 27 nM |
| C[C@@H]1CC[C@H]2[C@@H](C)[C@](OCCCCCOCC3=C(C(F)(F)F)O[C@@H]4O[C@@]5(C)CC[C@H]6[C@H](C)CC[C@@H]3[C@@]46OO5)(C(F)(F)F)O[C@@H]3O[C@@]4(C)CC[C@@H]1[C@]32OO4 [Compound 16] | 19 nM | 42 nM |
| C[C@@H]1CC[C@H]2C(COCCCCO[C@@]3(C(F)(F)F)O[C@@H]4OC5(C)CCC6[C@H](C)CC[C@@H]([C@H]3C)[C@]64OO5)=C(C(F)(F)F)O[C@@H]3OC4(C)CCC1[C@]32OO4 (stereo partly drawn) [Compound 3] | 6.7 nM | 5.5 nM |
| C[C@@H]1CC[C@H]2C(COC/C=C/CO[C@@]3(C(F)(F)F)O[C@@H]4OC5(C)CCC6[C@H](C)CC[C@@H]([C@H]3C)[C@]64OO5)=C(C(F)(F)F)O[C@@H]3O[C@@]4(C)CCC1[C@]32OO4 (stereo partly drawn) [Compound 8] | 27 nM | 13 nM |
| C[C@@H]1CC[C@H]2C(COCc3cccc(CO[C@@]4(C(F)(F)F)O[C@@H]5OC6(C)CCC7[C@H](C)CC[C@@H]([C@H]4C)[C@]75OO6)n3)=C(C(F)(F)F)O[C@@H]3OC4(C)CCC1[C@]32OO4 (stereo partly drawn) [Compound 4] | 27 nM | 19 nM |
| C[C@@H]1CC[C@H]2[C@@H](C)[C@](OCCCCCN(C)CC3=C(C(F)(F)F)O[C@@H]4O[C@@]5(C)CC[C@H]6[C@H](C)CC[C@@H]3[C@@]46OO5)(C(F)(F)F)O[C@@H]3O[C@@]4(C)CC[C@@H]1[C@]32OO4 [Compound 22] | 46 nM | 83 nM |
| C[C@@H]1CC[C@H]2C(COCCCO[C@@]3(C(F)(F)F)O[C@@H]4OC5(C)CCC6[C@H](C)CC[C@@H]([C@H]3C)[C@]64OO5)=C(C(F)(F)F)O[C@@H]3OC4(C)CCC1[C@]32OO4 (stereo partly drawn) [Compound 1] | 5.2 nM | 6.8 nM |
| C[C@@H]1CC[C@H]2C(CNCCO[C@@]3(C(F)(F)F)O[C@@H]4OC5(C)CCC6[C@H](C)CC[C@@H]([C@H]3C)[C@]64OO5)=C(C(F)(F)F)O[C@@H]3O[C@@]4(C)CCC1[C@]32OO4 (stereo partly drawn) [Compound 10] | 27 nM | 19 nM |
